# In patent publication US20240108738A1, “BICYCLIC PEPTIDE LIGANDS SPECIFIC FOR NK CELLS” (Bicycle Tx Limited, priority 2021, published 2024):
# Numbered stars: 1 amine (or outer) side, 2 acyl side, 3 side chain; on linkers, the order of the positions; unused ones are H or OH. Bridge positions count the residues as written; N and C are the ends. Square brackets hold non-standard residues; d marks the D form. Peptide text beside a SMILES is read from it. TATA = O=C(CC[*:1])N1CN(C(=O)CC[*:2])CN(C(=O)CC[*:3])C1; Cba = N[C@@H](CC1CCC1)C(=O)O; dNva = CCC[C@@H](N)C(=O)O; Nva = CCC[C@H](N)C(=O)O; Dap = NC[C@H](N)C(=O)O
# Target: T1, Fc-tagged human NKp46 (Homo sapiens, UniProt O76036)
# T1 construct: purchased ACROBiosystems NC1-H5257
# T1 sequence (O76036 22-304): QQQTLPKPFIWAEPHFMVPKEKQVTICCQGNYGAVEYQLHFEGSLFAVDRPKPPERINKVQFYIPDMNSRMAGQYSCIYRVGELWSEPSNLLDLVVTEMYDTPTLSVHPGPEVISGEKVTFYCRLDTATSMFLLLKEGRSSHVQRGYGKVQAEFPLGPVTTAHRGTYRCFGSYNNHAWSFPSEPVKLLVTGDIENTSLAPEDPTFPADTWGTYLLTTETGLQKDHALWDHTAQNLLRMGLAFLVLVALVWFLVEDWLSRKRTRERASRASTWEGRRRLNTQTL
# Test: NKp46 SPR assay (Method 1 and/or Method 2)
# Format: binding
# Conditions: SPR Method 1 and/or Method 2, Table 3B
# Procedure, shortened: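 Method 1: biotinylated Avi-tag NKp46-Fc on streptavidin chip, peptides to 100-5000 nM top in PBS/0.05% Tween 20, 0.5% DMSO; 1:1 kinetic fit with mass transport. Method 2: NKp46-Fc captured by anti-Fc, PBS-P+ 2% DMSO; steady-state or kinetic 1:1 fit. Both 25° C, 50 μl/min, 60 s association.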
row,Kd [µM],SMILES
1,3.14,"CC(C)C[C@@H]1NC(=O)[C@H](CC(N)=O)NC(=O)[C@@H](NC(=O)[C@H](C)N)CSCCC(=O)N2CN3CN(C2)C(=O)CCSC[C@H](NC(=O)[C@@H]2CCCN2C(=O)[C@H](C)NC(=O)[C@H](CCC(N)=O)NC1=O)C(=O)N[C@@H](CC(C)C)C(=O)N[C@@H](Cc1c[nH]cn1)C(=O)N[C@@H]([C@@H](C)O)C(=O)NCC(=O)N[C@@H](CCCCN)C(=O)N[C@@H](C(C)C)C(=O)N[C@H](C(=O)N[C@@H](C)C(N)=O)CSCCC3=O [BCY19712, A-(SEQ ID NO: 101)-A] (H-ACNLQAPCLHTGKVCA-NH2; linker 2-8-15 via TATA; C-terminus assumed)"
2,2.27,"CC[C@H](C)[C@@H]1NC(=O)CNC(=O)[C@H](Cc2c[nH]c3c(C)cccc23)NC(=O)[C@H](CCC(N)=O)NC(=O)[C@@H]2CSCCC(=O)N3CN(CN(C3)C(=O)CCSC[C@@H](C(=O)N[C@@H](C)C(N)=O)NC1=O)C(=O)CCSC[C@H](NC(=O)[C@H](C)N)C(=O)N[C@@H](CC(=O)O)C(=O)N[C@@H](CC(C)C)C(=O)N[C@@H]([C@@H](C)O)C(=O)N[C@@H]([C@@H](C)O)C(=O)N[C@@H](Cc1c[nH]cn1)C(=O)N[C@@H](CC(N)=O)C(=O)N2 [BCY19723, A-(SEQ ID NO: 161)-A]"
3,0.354,"CC[C@H](C)[C@@H]1NC(=O)CNC(=O)[C@H](Cc2cn(C)c3ccccc23)NC(=O)[C@H](CCC(N)=O)NC(=O)[C@@H]2CSCCC(=O)N3CN(CN(C3)C(=O)CCSC[C@@H](C(=O)N[C@@H](C)C(N)=O)NC1=O)C(=O)CCSC[C@H](NC(=O)[C@H](C)N)C(=O)N[C@@H](CC(=O)O)C(=O)N[C@@H](CC(C)C)C(=O)N[C@@H]([C@@H](C)O)C(=O)N[C@@H]([C@@H](C)O)C(=O)N[C@@H](Cc1c[nH]cn1)C(=O)N[C@@H](CC(N)=O)C(=O)N2 [BCY18288, A-(SEQ ID NO: 131)-A]"
4,0.0039,"CC(C)C[C@@H]1NC(=O)[C@H](Cc2ccc(O)cc2)NC(=O)[C@H](CC(=O)O)NC(=O)[C@@H]2CCCN2C(=O)[C@H](CC2CCC2)NC(=O)[C@H](Cc2ccc(O)cc2)NC(=O)[C@@H](NC(=O)[C@H](C)N)CSCCC(=O)N2CN3CN(C2)C(=O)CCSC[C@H](NC1=O)C(=O)N[C@H](C)C(=O)N[C@@H](CC(=O)O)C(=O)N[C@@H](CCC(=O)O)C(=O)N[C@@H](Cc1ccc(O)cc1)C(=O)N[C@H](C(=O)N[C@@H](C)C(N)=O)CSCCC3=O [BCY16132, A-(SEQ ID NO: 40)-A] (H-ACY[Cba]PDYLC[dA]DEYCA-NH2; linker 2-9-14 via TATA; N-terminus assumed)"
5,1.46,"CC[C@H](C)[C@@H]1NC(=O)[C@@H](C)NC(=O)[C@H](Cc2c[nH]c3ccccc23)NC(=O)[C@H](CCC(N)=O)NC(=O)[C@@H]2CSCCC(=O)N3CN(CN(C3)C(=O)CCSC[C@@H](C(=O)N[C@@H](C)C(N)=O)NC1=O)C(=O)CCSC[C@H](NC(=O)[C@H](C)N)C(=O)N[C@@H](CC(=O)O)C(=O)N[C@@H](CC(C)C)C(=O)N[C@@H]([C@@H](C)O)C(=O)N[C@@H]([C@@H](C)O)C(=O)N[C@@H](Cc1c[nH]cn1)C(=O)N[C@@H](CC(N)=O)C(=O)N2 [BCY18292, A-(SEQ ID NO: 135)-A] (H-ACDLTTHNCQW[dA]ICA-NH2; linker 2-9-14 via TATA; N-terminus and C-terminus assumed)"
6,1.62,"CCC[C@@H]1NC(=O)[C@H](CCSC)NC(=O)[C@@H]2CSCCC(=O)N3CN(CN(C3)C(=O)CCSC[C@@H](C(=O)N[C@@H](C)C(N)=O)NC(=O)[C@H](C(C)C)NC(=O)[C@H](CCCCN)NC(=O)CNC(=O)[C@H]([C@@H](C)O)NC1=O)C(=O)CCSC[C@H](NC(=O)[C@H](C)N)C(=O)N[C@@H](CC(N)=O)C(=O)N[C@@H](CC(C)C)C(=O)N[C@@H](CCC(N)=O)C(=O)N[C@@H](C)C(=O)N1CCC[C@H]1C(=O)N2 [BCY19704, A-(SEQ ID NO: 95)-A] (H-ACNLQAPCM[Nva]TGKVCA-NH2; linker 2-8-15 via TATA; N-terminus assumed)"
7,1.46,"CC[C@H](C)[C@@H]1NC(=O)CNC(=O)[C@H](Cc2c[nH]c3cc(C)ccc23)NC(=O)[C@H](CCC(N)=O)NC(=O)[C@@H]2CSCCC(=O)N3CN(CN(C3)C(=O)CCSC[C@@H](C(=O)N[C@@H](C)C(N)=O)NC1=O)C(=O)CCSC[C@H](NC(=O)[C@H](C)N)C(=O)N[C@@H](CC(=O)O)C(=O)N[C@@H](CC(C)C)C(=O)N[C@@H]([C@@H](C)O)C(=O)N[C@@H]([C@@H](C)O)C(=O)N[C@@H](Cc1c[nH]cn1)C(=O)N[C@@H](CC(N)=O)C(=O)N2 [BCY19722, A-(SEQ ID NO: 160)-A]"
8,3.73,"CSCC[C@@H]1NC(=O)[C@@H]2CSCCC(=O)N3CN(CN(C3)C(=O)CCSC[C@H](NC(=O)[C@@H](N)CN)C(=O)N[C@@H](CC(N)=O)C(=O)N[C@@H](CC(C)C)C(=O)N[C@@H](CCC(N)=O)C(=O)N[C@@H](C)C(=O)N3CCC[C@H]3C(=O)N2)C(=O)CCSC[C@@H](C(=O)N[C@@H](C)C(N)=O)NC(=O)[C@H](C(C)C)NC(=O)[C@H](CCCCN)NC(=O)CNC(=O)[C@H]([C@@H](C)O)NC(=O)[C@H](CC(C)C)NC1=O [BCY19697, Dap-(SEQ ID NO: 4)-A] (H-[Dap]CNLQAPCMLTGKVCA-NH2; linker 2-8-15 via TATA)"
9,> 0.5,"CC(=O)N[C@H]1CSCCC(=O)N2CN3CN(C2)C(=O)CCSC[C@H](C(N)=O)NC(=O)[C@H](Cc2ccc(O)cc2)NC(=O)[C@H](CCC(=O)O)NC(=O)[C@H](CC(=O)O)NC(=O)[C@@H](C)NC(=O)[C@H](CSCCC3=O)NC(=O)[C@H](CC(C)C)NC(=O)[C@H](Cc2ccc(O)cc2)NC(=O)[C@H](CC(=O)O)NC(=O)[C@@H]2CCCN2C(=O)[C@H](CC2CCC2)NC(=O)[C@H](Cc2ccc(O)cc2)NC1=O [BCY19692, Ac-(SEQ ID NO: 156)] (Ac-CY[Cba]PDYLC[dA]DEY[dC]-NH2; linker 1-8-13 via TATA)"
10,1.8,"CSCC[C@@H]1NC(=O)[C@@H]2CSCCC(=O)N3CN(CN(C3)C(=O)CCSC[C@@H](C(=O)N[C@@H](C)C(N)=O)NC(=O)[C@H](C(C)C)NC(=O)[C@H](CCCCN)NC(=O)CNC(=O)[C@H]([C@@H](C)O)NC(=O)[C@H](CC(C)C)NC1=O)C(=O)CCSC[C@H](NC(=O)[C@H](C)N)C(=O)N[C@@H](CC(N)=O)C(=O)N[C@@H](CC(C)C)C(=O)N[C@@H](CCC(N)=O)C(=O)N[C@@H](C)C(=O)N[C@@H](C)C(=O)N2 [BCY18299, A-(SEQ ID NO: 64)-A] (H-ACNLQAACMLTGKVCA-NH2; linker 2-8-15 via TATA; N-terminus assumed)"
11,1.48,"CC[C@H](C)[C@@H]1NC(=O)CNC(=O)[C@H](Cc2c[nH]c3ccccc23)NC(=O)[C@H](CCC(N)=O)NC(=O)[C@@H]2CSCCC(=O)N3CN(CN(C3)C(=O)CCSC[C@@H](C(=O)N[C@@H](C)C(N)=O)NC1=O)C(=O)CCSC[C@H](NC(=O)[C@H](C)N)C(=O)N[C@@H](CC(=O)O)C(=O)N[C@@H](CC(C)C)C(=O)N[C@@H](C)C(=O)N[C@@H]([C@@H](C)O)C(=O)N[C@@H](Cc1c[nH]cn1)C(=O)N[C@@H](CC(N)=O)C(=O)N2 [BCY18265, A-(SEQ ID NO: 117)-A] (H-ACDLATHNCQWGICA-NH2; linker 2-9-14 via TATA; C-terminus assumed)"
12,2.27,"CSCC[C@@H]1NC(=O)[C@H](CCCCN)NC(=O)[C@@H]2CCCN2C(=O)[C@H](Cc2c[nH]cn2)NC(=O)[C@H]([C@@H](C)O)NC(=O)[C@H](CC(N)=O)NC(=O)[C@@H]2CCCN2C(=O)[C@@H]2CSCCC(=O)N3CN(CN(C3)C(=O)CCSC[C@@H](C(=O)N[C@@H](C)C(N)=O)NC1=O)C(=O)CCSC[C@H](NC(=O)[C@H](C)N)C(=O)N[C@@H](CC(C)C)C(=O)N[C@@H](CC(C)C)C(=O)N[C@@H](Cc1c[nH]cn1)C(=O)N[C@@H](CC(=O)O)C(=O)N[C@@H](Cc1c[nH]cn1)C(=O)N2 [BCY14457, A-(SEQ ID NO: 103)-A] (H-ACLLHDHCPNTHPKMCA-NH2; linker 2-8-16 via TATA)"
13,1.92,"CSCC[C@@H]1NC(=O)[C@@H]2CSCCC(=O)N3CN(CN(C3)C(=O)CCSC[C@@H](C(=O)N[C@@H](C)C(N)=O)NC(=O)[C@H](C(C)C)NC(=O)[C@H](CCCCN)NC(=O)CNC(=O)[C@H]([C@@H](C)O)NC(=O)[C@H](Cc3ccc(O)cc3)NC1=O)C(=O)CCSC[C@H](NC(=O)[C@H](C)N)C(=O)N[C@@H](CC(N)=O)C(=O)N[C@@H](CC(C)C)C(=O)N[C@@H](CCC(N)=O)C(=O)N[C@@H](C)C(=O)N1CCC[C@H]1C(=O)N2 [BCY18318, A-(SEQ ID NO: 80)-A] (H-ACNLQAPCMYTGKVCA-NH2; linker 2-8-15 via TATA)"
14,0.0039,"CCC[C@H]1NC(=O)[C@@H]2CSCCC(=O)N3CN(CN(C3)C(=O)CCSC[C@H](NC(C)=O)C(=O)N[C@@H](Cc3ccc(O)cc3)C(=O)N[C@@H](CC3CCC3)C(=O)N3CCC[C@H]3C(=O)N[C@@H](CC(=O)O)C(=O)N[C@@H](Cc3ccc(O)cc3)C(=O)N[C@@H](CC(C)C)C(=O)N2)C(=O)CCSC[C@@H](C(N)=O)NC(=O)[C@H](Cc2ccc(O)cc2)NC(=O)[C@H](CCC(=O)O)NC(=O)[C@H](CC(=O)O)NC1=O [BCY18444, Ac-(SEQ ID NO: 145)] (Ac-CY[Cba]PDYLC[dNva]DEYC-NH2; linker 1-8-13 via TATA)"
15,1.11,"CC[C@H](C)[C@@H]1NC(=O)CNC(=O)[C@H](Cc2c[nH]c3ccccc23)NC(=O)[C@H](CCC(N)=O)NC(=O)[C@@H]2CSCCC(=O)N3CN(CN(C3)C(=O)CCSC[C@H](N)C(=O)N[C@@H](CC(=O)O)C(=O)N[C@@H](CC(C)C)C(=O)N[C@@H]([C@@H](C)O)C(=O)N[C@@H]([C@@H](C)O)C(=O)N[C@@H](Cc3c[nH]cn3)C(=O)N[C@@H](CC(N)=O)C(=O)N2)C(=O)CCSC[C@@H](C(=O)N[C@@H](C)C(N)=O)NC1=O [BCY19718, (SEQ ID NO: 11)-A] (H-CDLTTHNCQWGICA-NH2; linker 1-8-13 via TATA)"
16,2.75,"CSCC[C@@H]1NC(=O)[C@@H]2CSCCC(=O)N3CN(CN(C3)C(=O)CCSC[C@@H](C(=O)N[C@@H](C)C(N)=O)NC(=O)[C@H](C(C)C)NC(=O)[C@H](CCCCN)NC(=O)CNC(=O)[C@H]([C@@H](C)O)NC(=O)[C@H](Cc3c[nH]cn3)NC1=O)C(=O)CCSC[C@H](NC(=O)[C@H](C)N)C(=O)N[C@@H](CC(N)=O)C(=O)N[C@@H](CC(C)C)C(=O)N[C@@H](CCC(N)=O)C(=O)N[C@@H](C)C(=O)N1CCC[C@H]1C(=O)N2 [BCY19711, A-(SEQ ID NO: 100)-A] (H-ACNLQAPCMHTGKVCA-NH2; linker 2-8-15 via TATA; N-terminus assumed)"
